Laboratory results reported in US10065941B2, “Aminotriazine derivative and pharmaceutical composition comprising the same” (Shionogi & Co., Ltd., priority 2013, dated 2018).
pIC50: −log10 of the molar value.

target: human P2X3 receptor (Homo sapiens (Human), UniProt P56373); test: Evaluation of human P2X3 receptor inhibitory activity (Test Example 1); assay type: cell-based; details: C6BU-1 cell transfected with human P2X3 receptor gene, FLIPR 384
Procedure: Stably expressing cell line (C6BU-1 cell transfected with human P2X3 receptor gene (GenBank accession number Y07683) was used. The cells were seeded in a 384-well PDL-coated microtiter plate at a concentration of 3000 cells/well and cultured in the medium (8.3% fetal bovine serum, 8.3% horse serum, and 1% antibiotic and antifungal in DMEM) for one day at 37° C. under 5% carbon dioxide atmosphere. The medium was replaced with 4 μM Fluo-3-AM solution (20 mM HEPES, 137 mM NaCl, 2.7 mM KCl, 0.9 mM MgCl2, 5.0 mM CaCl2, 5.6 mM D-glucose, 2.5 mM probenecid, 0.5% BSA, and 0.04% Pluronic F-127, pH 7.5) and incubated at 37° C. under 5% dioxide carbon atmosphere for one hour. The plate was washed with washing buffer (20 mM HEPES, 137 mM NaCl, 2.7 mM KCl, 0.9 mM MgCl2, 5.0 mM CaCl2, 5.6 mM D-glucose, 2.5 mM probenecid, pH7.5), and each well was added with 20 μL of the washing buffer. The plate was placed in High-Throughput Screening System FLIPR 384 (Molecular Device Co.). Measurement of fluorescence intensity by FLIPR 384 was started, and 20 μL of DMSO solutions containing different concentrations of the test compound as prepared by dilution with dilution buffer (20 mM HEPES, 137 mM NaCl, 2.7 mM KCl, 0.9 mM MgCl2, 5.0 mM CaCl2, 5.6 mM D-glucose, 2.5 mM probenecid, 0.1% Pluronic F-127, pH7.5) were dispensed to each well through the built-in automatic dispenser. Five minutes after, 150 nM ATP solution (25 μL) prepared by dilution with the dilution buffer was dispensed through the built-in automatic dispenser, and the measurement of fluorescence intensity was continued for 4 min. For each well, the specific maximum fluorescence intensity was calculated as the ratio of the maximum fluorescence intensity after addition of the ATP solution to the fluorescence intensity at the starting of the measurement. […] The specific maximum fluorescence intensity and IC50 were calculated using Spotfire (Science & Technology Systems, Inc.)

human P2X3 receptor, sequence (P56373 whole entry): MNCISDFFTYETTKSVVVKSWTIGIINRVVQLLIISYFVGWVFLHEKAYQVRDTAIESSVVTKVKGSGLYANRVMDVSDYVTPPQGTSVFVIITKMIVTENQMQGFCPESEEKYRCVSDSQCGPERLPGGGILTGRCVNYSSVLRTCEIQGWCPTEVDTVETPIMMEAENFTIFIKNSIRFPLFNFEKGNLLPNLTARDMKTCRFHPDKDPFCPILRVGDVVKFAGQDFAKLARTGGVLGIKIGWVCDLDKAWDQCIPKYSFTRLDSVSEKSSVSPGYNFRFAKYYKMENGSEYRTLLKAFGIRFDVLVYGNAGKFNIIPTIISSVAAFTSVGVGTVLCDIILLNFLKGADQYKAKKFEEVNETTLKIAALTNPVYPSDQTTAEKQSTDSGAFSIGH

**Q.** COC(=O)[C@H](C)[C@H](C)n1c(=O)[nH]/c(=N\c2ccc(Oc3ccc(F)cn3)c(F)c2)n(Cc2ccc(Cl)cc2)c1=O [Compound I-001] was tested. Which pIC50 did it give?
**A.** 7.36

**Q.** COC(=O)C(C)(C)Cn1c(=O)[nH]/c(=N\c2ccc(Oc3ccc(F)cn3)cc2)n(Cc2ccc(Cl)cc2)c1=O [Compound I-003] was tested. Which pIC50 did it give?
**A.** 8.15

**Q.** How did the pIC50 turn out when COC(=O)C(C)(C)Cn1c(=O)[nH]/c(=N\c2ccc(Oc3ccc(Cl)cn3)cc2)n(Cc2ccc(Cl)cc2)c1=O [Compound I-004] was run?
**A.** 7.85

**Q.** How did the pIC50 turn out when CC(C)(Cn1c(=O)[nH]/c(=N\c2ccc(Oc3ccc(F)cn3)cc2)n(Cc2ccc(Cl)cc2)c1=O)C(=O)O [Compound I-005] was run?
**A.** 8.10

**Q.** With COC(=O)C(C)(C)Cn1c(=O)[nH]/c(=N\c2ccc(Oc3ncccc3F)cc2)n(Cc2ccc(Cl)cc2)c1=O [Compound I-007] as the molecule, how does the pIC50 read?
**A.** 8.05

**Q.** COC(=O)C(C)(C)Cn1c(=O)[nH]/c(=N\c2ccc(Oc3cccc(F)n3)cc2)n(Cc2ccc(Cl)cc2)c1=O [Compound I-008] was tested. Which pIC50 did it give?
**A.** 8.15

**Q.** CC(C)(Cn1c(=O)[nH]/c(=N\c2ccc(Oc3ncccc3F)cc2)n(Cc2ccc(Cl)cc2)c1=O)C(=O)O [Compound I-009] was tested. Which pIC50 did it give?
**A.** 8.15

**Q.** With CC(C)(Cn1c(=O)[nH]/c(=N\c2ccc(Oc3cccc(F)n3)cc2)n(Cc2ccc(Cl)cc2)c1=O)C(=O)O [Compound I-010] as the molecule, how does the pIC50 read?
**A.** 8.30

**Q.** With COC(=O)[C@@H](C)Cn1c(=O)[nH]/c(=N\c2ccc(Oc3cccc(Cl)n3)cc2)n(Cc2ccc(Cl)cc2)c1=O [Compound I-011] as the molecule, how does the pIC50 read?
**A.** 7.74

**Q.** How did the pIC50 turn out when COC(=O)C(C)(C)Cn1c(=O)[nH]/c(=N\c2ccc(Oc3cccc(Cl)n3)cc2)n(Cc2ccc(Cl)cc2)c1=O [Compound I-012] was run?
**A.** 7.60

**Q.** COC(=O)[C@H](C)[C@H](C)n1c(=O)[nH]/c(=N\c2ccc(Oc3cccc(Cl)n3)cc2)n(Cc2ccc(Cl)cc2)c1=O [Compound I-013] was tested. Which pIC50 did it give?
**A.** 7.24

**Q.** CC(C)(Cn1c(=O)[nH]/c(=N\c2ccc(Oc3cccc(Cl)n3)cc2)n(Cc2ccc(Cl)cc2)c1=O)C(=O)O [Compound I-015] was tested. Which pIC50 did it give?
**A.** 8.05

**Q.** C[C@@H](C(=O)O)[C@H](C)n1c(=O)[nH]/c(=N\c2ccc(Oc3cccc(Cl)n3)cc2)n(Cc2ccc(Cl)cc2)c1=O [Compound I-016] was tested. Which pIC50 did it give?
**A.** 8.10

**Q.** O=C(O)C1(Cn2c(=O)[nH]/c(=N\c3ccc(Oc4ccc(F)cn4)cc3)n(Cc3ccc(Cl)cc3)c2=O)CC1 [Compound I-018] was tested. Which pIC50 did it give?
**A.** 7.92

**Q.** How did the pIC50 turn out when O=c1[nH]/c(=N\c2ccc(Oc3ccc(F)cn3)cc2)n(Cc2ccc(Cl)cc2)c(=O)n1[C@H]1C[C@@H](C(=O)O)C1 [Compound I-020] was run?
**A.** 8.05

**Q.** How did the pIC50 turn out when COC(=O)C(C)(C)Cn1c(=O)[nH]/c(=N\c2ccc(Oc3ccc(OC(F)F)cn3)cc2)n(Cc2ccc(Cl)cc2)c1=O [Compound I-021] was run?
**A.** 7.60

**Q.** C[C@@H](Cn1c(=O)[nH]/c(=N\c2ccc(Oc3ccc(OC(F)F)cn3)cc2)n(Cc2ccc(Cl)cc2)c1=O)C(=O)O [Compound I-022] was tested. Which pIC50 did it give?
**A.** 8.40

**Q.** With CC(C)(Cn1c(=O)[nH]/c(=N\c2ccc(Oc3ccc(OC(F)F)cn3)cc2)n(Cc2ccc(Cl)cc2)c1=O)C(=O)O [Compound I-023] as the molecule, how does the pIC50 read?
**A.** 8.15

**Q.** With COC(=O)[C@@H](C)Cn1c(=O)[nH]/c(=N\c2ccc(Oc3ncccc3F)cc2)n(Cc2ccc(F)cc2F)c1=O [Compound I-024] as the molecule, how does the pIC50 read?
**A.** 7.47

**Q.** COC(=O)[C@@H](C)Cn1c(=O)[nH]/c(=N\c2ccc(Oc3cccc(F)n3)cc2)n(Cc2ccc(F)cc2F)c1=O [Compound I-026] was tested. Which pIC50 did it give?
**A.** 7.77

**Q.** With C[C@@H](Cn1c(=O)[nH]/c(=N\c2ccc(Oc3ncccc3F)cc2)n(Cc2ccc(F)cc2F)c1=O)C(=O)O [Compound I-027] as the molecule, how does the pIC50 read?
**A.** 7.41

**Q.** With C[C@@H](Cn1c(=O)[nH]/c(=N\c2ccc(Oc3ccc(F)cn3)cc2)n(Cc2ccc(F)cc2F)c1=O)C(=O)O [Compound I-028] as the molecule, how does the pIC50 read?
**A.** 7.70

**Q.** How did the pIC50 turn out when COC(=O)[C@@H](C)Cn1c(=O)[nH]/c(=N\c2ccc(Oc3ncccc3C(F)(F)F)cc2)n(Cc2ccc(Cl)cc2)c1=O [Compound I-030] was run?
**A.** 6.75

**Q.** COC(=O)C(C)(C)Cn1c(=O)[nH]/c(=N\c2ccc(Oc3ncccc3C(F)(F)F)cc2)n(Cc2ccc(Cl)cc2)c1=O [Compound I-031] was tested. Which pIC50 did it give?
**A.** 6.70

**Q.** How did the pIC50 turn out when C[C@@H](Cn1c(=O)[nH]/c(=N\c2ccc(Oc3ncccc3C(F)(F)F)cc2)n(Cc2ccc(Cl)cc2)c1=O)C(=O)O [Compound I-032] was run?
**A.** 7.96

**Q.** With CC(C)(Cn1c(=O)[nH]/c(=N\c2ccc(Oc3ncccc3C(F)(F)F)cc2)n(Cc2ccc(Cl)cc2)c1=O)C(=O)O [Compound I-033] as the molecule, how does the pIC50 read?
**A.** 7.64

**Q.** COC(=O)[C@@H](C)Cn1c(=O)[nH]/c(=N\c2ccc(Oc3ccc(C(F)(F)F)cn3)cc2)n(Cc2ccc(C)cc2)c1=O [Compound I-034] was tested. Which pIC50 did it give?
**A.** 8.05

**Q.** With COC(=O)[C@@H](C)Cn1c(=O)[nH]/c(=N\c2ccc(Oc3cccc(C(F)(F)F)n3)cc2)n(Cc2ccc(C)cc2)c1=O [Compound I-035] as the molecule, how does the pIC50 read?
**A.** 7.92

**Q.** With COC(=O)C(C)(C)Cn1c(=O)[nH]/c(=N\c2ccc(Oc3ccc(F)cn3)cc2)n(Cc2ccc(C)cc2)c1=O [Compound I-037] as the molecule, how does the pIC50 read?
**A.** 8.22

**Q.** With Cc1ccc(Cn2c(=O)n(C[C@H](C)C(=O)O)c(=O)[nH]/c2=N\c2ccc(Oc3ccc(C(F)(F)F)cn3)cc2)cc1 [Compound I-038] as the molecule, how does the pIC50 read?
**A.** 8.30

**Q.** With Cc1ccc(Cn2c(=O)n(C[C@H](C)C(=O)O)c(=O)[nH]/c2=N\c2ccc(Oc3cccc(C(F)(F)F)n3)cc2)cc1 [Compound I-039] as the molecule, how does the pIC50 read?
**A.** 8.10

**Q.** How did the pIC50 turn out when Cc1ccc(Cn2c(=O)n(CC(C)(C)C(=O)O)c(=O)[nH]/c2=N\c2ccc(Oc3ccc(F)cn3)cc2)cc1 [Compound I-041] was run?
**A.** 8.05

**Q.** How did the pIC50 turn out when O=c1[nH]/c(=N\c2ccc(Oc3cccc(F)n3)cc2)n(Cc2ccc(Cl)cc2)c(=O)n1CC1(CO)COC1 [Compound I-042] was run?
**A.** 8.40

**Q.** With COC(=O)[C@@H](C)Cn1c(=O)[nH]/c(=N\c2ccc(Oc3ncccc3OC(F)F)cc2)n(Cc2ccc(Cl)cc2)c1=O [Compound I-043] as the molecule, how does the pIC50 read?
**A.** 6.93

**Q.** C[C@@H](Cn1c(=O)[nH]/c(=N\c2ccc(Oc3ncccc3OC(F)F)cc2)n(Cc2ccc(Cl)cc2)c1=O)C(=O)O [Compound I-044] was tested. Which pIC50 did it give?
**A.** 7.59

**Q.** COC(=O)[C@@H](C)Cn1c(=O)[nH]/c(=N\c2ccc(Oc3ncccc3C#N)cc2)n(Cc2ccc(Cl)cc2)c1=O [Compound I-045] was tested. Which pIC50 did it give?
**A.** 7.72

**Q.** With COC(=O)C(C)(C)Cn1c(=O)[nH]/c(=N\c2ccc(Oc3ncccc3C#N)cc2)n(Cc2ccc(Cl)cc2)c1=O [Compound I-046] as the molecule, how does the pIC50 read?
**A.** 7.72

**Q.** C[C@@H](Cn1c(=O)[nH]/c(=N\c2ccc(Oc3ncccc3C#N)cc2)n(Cc2ccc(Cl)cc2)c1=O)C(=O)O [Compound I-047] was tested. Which pIC50 did it give?
**A.** 7.66

**Q.** CC(C)(Cn1c(=O)[nH]/c(=N\c2ccc(Oc3ncccc3C#N)cc2)n(Cc2ccc(Cl)cc2)c1=O)C(=O)O [Compound I-048] was tested. Which pIC50 did it give?
**A.** 7.52

**Q.** O=C(O)C1(Cn2c(=O)[nH]/c(=N\c3ccc(Oc4cccc(F)n4)cc3)n(Cc3ccc(Cl)cc3)c2=O)COC1 [Compound I-049] was tested. Which pIC50 did it give?
**A.** 7.82

**Q.** With O=C(O)C1(Cn2c(=O)[nH]/c(=N\c3ccc(Oc4ncccc4F)cc3)n(Cc3ccc(Cl)cc3)c2=O)COC1 [Compound I-050] as the molecule, how does the pIC50 read?
**A.** 7.55

**Q.** How did the pIC50 turn out when COC(=O)[C@@H](C)Cn1c(=O)[nH]/c(=N\c2ccc(Oc3ccc(C)cn3)cc2)n(Cc2ccc(Cl)cc2)c1=O [Compound I-051] was run?
**A.** 8.22

**Q.** With COC(=O)[C@@H](C)Cn1c(=O)[nH]/c(=N\c2ccc(Oc3ncccc3F)cc2)n(Cc2ccc(C)cc2)c1=O [Compound I-052] as the molecule, how does the pIC50 read?
**A.** 8.22

**Q.** COC(=O)[C@@H](C)Cn1c(=O)[nH]/c(=N\c2ccc(Oc3cccc(F)n3)cc2)n(Cc2ccc(C)cc2)c1=O [Compound I-053] was tested. Which pIC50 did it give?
**A.** 8.22
